Laboratory results published in patent US10584133B2, “Thienopyrimidinone compounds” (BioTheryX, Inc., priority 2018, dated 2020).

Columns and labels:
GSPT1 = GSPT1 degradation assay (Western blot, MV-4-11 cells); format: cell-based; conditions: 6-8 hours
Procedure: (§1) MV-4-11 cells were grown in RPMI 1640 media supplemented with 10% fetal bovine serum, streptomycin and penicillin.
(§2) Cells were cultured at approximately 10^6 cells per mL and incubated in DMSO or the indicated compounds for 6-8 hours. Whole cell extracts were prepared using RIPA buffer according to manufacturer's protocol (Pierce). Briefly, 3×10^6 cells were washed once in PBS, the cell pellets were resuspended in RIPA buffer and allowed to incubate for 15 minutes on ice. Cells debris was removed by centrifugation and the cleared whole cell lysates were transferred to new tubes for further analysis.
(§3) For Western blot analysis, whole cell protein extracts were separated on 4-12% SDS-polyacrylamide gels, transferred to nitrocellulose and probed with the indicated primary antibodies. Membranes were subsequently washed and probed with the appropriate IRDye secondary antibodies (LI-COR). The signal was detected using the Odyssey Imaging System (LI-COR).
(§4) The following antibodies were used in these studies: Anti-eRF3/GSPT1: Abcam, ab126090 (Cambridge, Mass.); Anti-Ikaros: Abcam, ab191394 (Cambridge, Mass.); Anti-CK1α: Abcam, ab108296 (Cambridge, Mass.); Anti-PDE6D: Santa Cruz Biotechnology, sc-166854 (Dallas, Tex.); β-actin (8H10D10) mouse monoclonal antibody: Cell Signaling Technology, #3700 (Danvers, Mass.); IRDye 680RD Goat anti-rabbit antibody: LI-COR, 926-68071 (Lincoln, Nebr.); IRDye 800CW Goat anti-mouse antibody: LI-COR, 926-32210 (Lincoln, Nebr.).

PDE6D = target: T1, PDE6D (Homo sapiens, UniProt O43924+Q96SW2); assay: PDE6 degradation assay (Western blot, MV-4-11 cells); format: cell-based; conditions: 6-8 hours
T1 construct: Whole cell extracts were prepared using RIPA buffer; endogenous in cells; host or cells: MV-4-11
T1 sequence (O43924 whole entry): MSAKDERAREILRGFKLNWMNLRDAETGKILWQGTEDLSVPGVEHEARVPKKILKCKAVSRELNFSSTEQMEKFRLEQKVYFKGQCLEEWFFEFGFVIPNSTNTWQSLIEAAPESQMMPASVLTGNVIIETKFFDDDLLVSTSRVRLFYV
T1 sequence (Q96SW2 whole entry): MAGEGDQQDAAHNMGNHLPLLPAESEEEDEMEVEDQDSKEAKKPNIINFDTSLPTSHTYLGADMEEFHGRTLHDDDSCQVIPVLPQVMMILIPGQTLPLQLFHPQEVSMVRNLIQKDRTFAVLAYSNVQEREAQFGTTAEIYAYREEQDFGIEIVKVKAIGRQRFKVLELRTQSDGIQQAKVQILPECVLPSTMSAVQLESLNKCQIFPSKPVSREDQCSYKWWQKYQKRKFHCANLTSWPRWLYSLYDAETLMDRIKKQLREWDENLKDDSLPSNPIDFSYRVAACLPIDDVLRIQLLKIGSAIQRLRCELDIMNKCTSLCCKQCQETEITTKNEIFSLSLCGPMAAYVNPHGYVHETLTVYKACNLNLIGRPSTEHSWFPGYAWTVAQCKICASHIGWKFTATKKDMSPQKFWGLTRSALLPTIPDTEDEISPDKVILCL
T1 sequence (Q16531 whole entry partner): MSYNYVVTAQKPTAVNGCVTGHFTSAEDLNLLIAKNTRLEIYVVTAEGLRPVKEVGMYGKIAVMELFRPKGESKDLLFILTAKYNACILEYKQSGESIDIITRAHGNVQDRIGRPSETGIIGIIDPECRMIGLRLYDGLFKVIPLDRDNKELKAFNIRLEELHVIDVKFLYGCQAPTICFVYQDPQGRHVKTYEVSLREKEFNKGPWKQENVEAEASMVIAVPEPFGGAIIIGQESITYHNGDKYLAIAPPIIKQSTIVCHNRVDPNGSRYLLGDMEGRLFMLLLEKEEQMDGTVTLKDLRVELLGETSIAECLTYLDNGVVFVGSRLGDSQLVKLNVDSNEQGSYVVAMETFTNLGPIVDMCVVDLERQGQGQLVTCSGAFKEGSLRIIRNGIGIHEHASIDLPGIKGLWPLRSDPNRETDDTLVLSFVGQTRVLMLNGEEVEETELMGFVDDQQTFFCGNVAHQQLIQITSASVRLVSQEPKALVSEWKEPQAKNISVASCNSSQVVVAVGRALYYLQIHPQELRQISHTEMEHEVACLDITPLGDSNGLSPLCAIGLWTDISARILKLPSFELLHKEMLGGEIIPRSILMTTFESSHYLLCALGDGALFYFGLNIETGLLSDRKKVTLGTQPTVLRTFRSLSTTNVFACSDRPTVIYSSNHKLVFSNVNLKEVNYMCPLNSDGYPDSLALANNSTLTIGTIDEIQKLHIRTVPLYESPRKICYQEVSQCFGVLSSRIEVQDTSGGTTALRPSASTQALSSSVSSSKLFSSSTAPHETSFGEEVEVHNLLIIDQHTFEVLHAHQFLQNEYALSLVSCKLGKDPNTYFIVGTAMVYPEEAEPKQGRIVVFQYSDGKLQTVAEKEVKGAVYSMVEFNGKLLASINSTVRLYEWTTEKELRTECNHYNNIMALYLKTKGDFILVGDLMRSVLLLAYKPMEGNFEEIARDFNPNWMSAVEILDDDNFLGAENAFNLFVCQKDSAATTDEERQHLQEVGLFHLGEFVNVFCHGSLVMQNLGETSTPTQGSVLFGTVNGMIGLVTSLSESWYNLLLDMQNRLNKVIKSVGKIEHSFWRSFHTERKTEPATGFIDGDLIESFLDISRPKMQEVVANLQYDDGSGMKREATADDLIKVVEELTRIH
Procedure: as §1, §2, §3, §4

IKAROS = target: T2, IKAROS (Homo sapiens, UniProt Q13422+Q96SW2); assay: IKAROS degradation assay (Western blot, MV-4-11 cells); format: cell-based; conditions: 6-8 hours
T2 construct: endogenous in cells; host or cells: MV-4-11
T2 sequence (Q13422 whole entry): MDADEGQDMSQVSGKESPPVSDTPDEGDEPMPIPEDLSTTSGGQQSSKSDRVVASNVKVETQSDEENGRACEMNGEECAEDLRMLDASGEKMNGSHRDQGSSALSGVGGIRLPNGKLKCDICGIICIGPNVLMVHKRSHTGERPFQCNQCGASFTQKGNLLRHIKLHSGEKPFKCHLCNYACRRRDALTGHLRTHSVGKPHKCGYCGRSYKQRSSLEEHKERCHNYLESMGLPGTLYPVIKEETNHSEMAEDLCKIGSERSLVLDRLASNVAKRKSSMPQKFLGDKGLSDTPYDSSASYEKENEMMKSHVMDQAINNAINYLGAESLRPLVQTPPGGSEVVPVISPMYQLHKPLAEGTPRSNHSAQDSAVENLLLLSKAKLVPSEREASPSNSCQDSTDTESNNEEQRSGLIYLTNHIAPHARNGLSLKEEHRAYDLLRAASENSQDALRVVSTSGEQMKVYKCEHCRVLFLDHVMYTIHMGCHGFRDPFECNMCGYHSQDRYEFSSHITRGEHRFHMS
T2 sequence (Q96SW2 whole entry): as the sequence (Q96SW2 whole entry) above
T2 sequence (Q16531 whole entry partner): as the sequence (Q16531 whole entry partner) above
Procedure: as §1, §2, §3, §4

MV-4-11 cells = assay: MV-4-11 cell viability assay (CellTiter-Glo); format: cell-based; conditions: 3 days
Procedure: MV-4-11 cells were cultured in RPMI 1640 media supplemented with 10% fetal bovine serum, streptomycin and penicillin, and were plated in white walled 96-well plates at 2500 cells/well. Cells were incubated in DMSO (control) or the indicated compounds for 3 days at 37° C. and 5% CO2. Following the incubation period, 100 μL of CellTiterGlow (CTG) reagent (CellTiter-Glo® Luminescent Cell Viability Assay, Promega (Madison, Wis.)) was added to each well. Following a 10 minutes incubation with shaking, luminescence was measured using the EnVision Multimode plate reader.

CK1α = target: T3, CK1α (Homo sapiens, UniProt P48729+Q96SW2); assay: CK1α degradation assay (Western blot, MV-4-11 cells); format: cell-based; conditions: 6-8 hours
T3 construct: Whole cell extracts were prepared using RIPA buffer; endogenous in cells; host or cells: MV-4-11
T3 sequence (P48729 whole entry): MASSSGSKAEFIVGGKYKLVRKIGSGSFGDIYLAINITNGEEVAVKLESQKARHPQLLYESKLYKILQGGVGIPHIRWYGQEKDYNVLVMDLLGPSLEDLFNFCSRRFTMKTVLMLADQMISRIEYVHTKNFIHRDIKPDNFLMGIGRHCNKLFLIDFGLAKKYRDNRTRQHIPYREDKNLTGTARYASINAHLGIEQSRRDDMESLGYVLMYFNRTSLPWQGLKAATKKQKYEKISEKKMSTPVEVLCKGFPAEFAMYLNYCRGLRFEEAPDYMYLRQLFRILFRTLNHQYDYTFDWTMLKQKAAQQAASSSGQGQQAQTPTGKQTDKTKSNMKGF
T3 sequence (Q96SW2 whole entry): as the sequence (Q96SW2 whole entry) above
T3 sequence (Q16531 whole entry partner): as the sequence (Q16531 whole entry partner) above
Procedure: as §1, §2, §3, §4

Helios = target: T4, Helios (Homo sapiens, UniProt Q96SW2+Q9UKS7); assay: Helios assay (Western blot degradation, MV-4-11 cells); format: cell-based; conditions: 6-8 hours
T4 construct: Whole cell extracts were prepared using RIPA buffer; endogenous in cells; host or cells: MV-4-11
T4 sequence (Q9UKS7 whole entry): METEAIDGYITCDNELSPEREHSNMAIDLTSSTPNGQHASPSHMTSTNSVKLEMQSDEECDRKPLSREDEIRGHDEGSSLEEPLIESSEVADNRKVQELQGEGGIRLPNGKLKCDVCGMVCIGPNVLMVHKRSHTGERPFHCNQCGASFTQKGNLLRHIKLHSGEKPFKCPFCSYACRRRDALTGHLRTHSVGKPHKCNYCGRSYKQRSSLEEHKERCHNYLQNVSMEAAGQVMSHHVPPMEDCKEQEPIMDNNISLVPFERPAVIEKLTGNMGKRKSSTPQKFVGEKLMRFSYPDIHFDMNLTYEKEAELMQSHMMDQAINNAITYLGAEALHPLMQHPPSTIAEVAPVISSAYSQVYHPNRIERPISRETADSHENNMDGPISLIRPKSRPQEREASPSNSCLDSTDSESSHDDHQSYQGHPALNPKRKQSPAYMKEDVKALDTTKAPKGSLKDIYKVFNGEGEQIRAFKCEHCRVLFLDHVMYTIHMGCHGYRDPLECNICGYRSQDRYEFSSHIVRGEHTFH
T4 sequence (Q96SW2 whole entry): as the sequence (Q96SW2 whole entry) above
T4 sequence (Q16531 whole entry partner): as the sequence (Q16531 whole entry partner) above
Procedure: as §1, §2, §3, §4

TNFα = TNFα in LPS-induced PBMCs / CD14+ monocytes (Meso Scale); format: cell-based; conditions: LPS 100 ng/mL, 18-24 h
Procedure: (§5) Either frozen primary blood mononuclear cells (PBMCs) or frozen CD14+ mobilized peripheral blood monocytes were purchased from AllCells (PB003F, Normal Peripheral Blood MNC (Alameda, Calif.)). Cells were quick thawed, washed 1-time with RPMI-1640 (10% FBS/1% Pen-Strep) and plated in 96 well plates at 200,000 cells per well. Cells were pretreated with DMSO only or Compound 12 for 1 h and then induced with 100 ng/mL lipopolysaccharide (LPS) for 18-24 h. The supernatant was analyzed for IL-1β, IL-6, and TNFα, using Meso Scale assay according to manufacturer's protocol. The negative control wells were treated with DMSO.

IL-2 = IL-2 in anti-CD3 stimulated PBMCs (Mesoscale); format: cell-based, human; conditions: fold difference from DMSO control, 24 h
Procedure: For the IL-2 analysis, 96 well plates were precoated with 1 μg/mL anti-human CD3 antibody (OKT3, eBioscience Inc., San Diego, Calif.). After washing with PBS, Compound 12 was added (50 μL/well) followed by PBMCs diluted at 3-4 million cells/mL (150 μL/well). Plates were incubated for 24 h and the supernatants collected for Mesoscale IL-2 analysis. IL-2 activity is measured as fold difference from the DMSO control.

IL-6 = IL-6 in LPS-induced PBMCs / CD14+ monocytes (Meso Scale); format: cell-based; conditions: LPS 100 ng/mL, 18-24 h
Procedure: as §5

IL-1β = IL-1β in LPS-induced PBMCs / CD14+ monocytes (Meso Scale); format: cell-based; conditions: LPS 100 ng/mL, 18-24 h
Procedure: as §5

PDE6D % Degradation at 15 μM (PDE6D)	PDE6D % Degradation at 30 μM (PDE6D)	IKAROS % Degradation at 15 μM (IKAROS)	IKAROS % Degradation at 30 μM (IKAROS)	CK1α % Degradation at 15 μM (CK1α)	CK1α % Degradation at 30 μM (CK1α)	Structure (SMILES)	MV-4-11 Cell Viability % DMSO at 15 μM (MV-4-11 cells)	MV-4-11 Cell Viability % DMSO at 30 μM (MV-4-11 cells)	also measured
				8%	0%	Cc1nc2sc(Br)cc2c(=O)n1C1CCC(=O)NC1=O (stereo not drawn) [Compound 8, 3-(6-bromo-2-methyl-4-oxothieno[2,3-d]pyrimidin-3(4H)-yl)piperidine-2,6-dione]			
				24%	12%	Cc1nc2c(N)csc2c(=O)n1C1CCC(=O)NC1=O (stereo not drawn) [Compound 9, 3-(7-amino-2-methyl-4-oxothieno[3,2-d]pyrimidin-3(4H)-yl)piperidine-2,6-dione]			
		49%	53%			Cc1nc2scc(N)c2c(=O)n1C1CCC(=O)NC1=O (stereo not drawn) [Compound 10, 3-(5-amino-2-methyl-4-oxothieno[2,3-d]pyrimidin-3(4H)-yl)piperidine-2,6-dione]			Helios % Degradation at 15 μM (Helios): 0%; Helios % Degradation at 30 μM (Helios): 16%
30%	41%			17%	0%	Cc1nc2c(CN)scc2c(=O)n1C1CCC(=O)NC1=O.O=C(O)C(F)(F)F (stereo not drawn) [Compound 11, 3-(7-(aminomethyl)-2-methyl-4-oxothieno[3,4-d]pyrimidin-3(4H)-yl)piperidine-2,6-dione 2,2,2-trifluoroacetate]	94 % DMSO	78 % DMSO	
0%	21%	28%	60%	16%	45%	Cc1ccc(NC(=O)NCc2scc3c(=O)n(C4CCC(=O)NC4=O)c(C)nc23)cc1Cl (stereo not drawn) [Compound 12, 1-(3-chloro-4-methylphenyl)-3-((3-(2,6-dioxopiperidin-3-yl)-2-methyl-4-oxo-3,4-dihydrothieno[3,4-d]pyrimidin-7-yl)methyl)urea]	0 % DMSO	0 % DMSO	Helios % Degradation at 15 μM (Helios): 49%; Helios % Degradation at 30 μM (Helios): 69%; inhibition at 1 µM (TNFα; 1 μM): 79%; inhibition at 10 µM (TNFα; 10 μM): 91%; GSPT1 % Degradation at 15 μM (GSPT1): 96%; GSPT1 % Degradation at 30 μM (GSPT1): 97%; IL-2 Fold Change (IL-2; 1 μM): 3.6 Fold Change; IL-2 Fold Change (IL-2; 10 μM): 3.1 Fold Change; inhibition at 1 µM (IL-6; 1 μM): 17%; inhibition at 10 µM (IL-6; 10 μM): 53%; inhibition at 1 µM (IL-1β; 1 μM): 80%; inhibition at 10 µM (IL-1β; 10 μM): 92%
4%	9%	65%	55%	31%	35%	Cc1ccc(NC(=O)NCc2cc3nc(C)n(C4CCC(=O)NC4=O)c(=O)c3s2)cc1Cl (stereo not drawn) [Compound 13, 1-(3-chloro-4-methylphenyl)-3-((3-(2,6-dioxopiperidin-3-yl)-2-methyl-4-oxo-3,4-dihydrothieno[3,2-d]pyrimidin-6-yl)methyl)urea]	2 % DMSO	0.73 % DMSO	Helios % Degradation at 15 μM (Helios): 50%; Helios % Degradation at 30 μM (Helios): 21%; GSPT1 % Degradation at 15 μM (GSPT1): 87%; GSPT1 % Degradation at 30 μM (GSPT1): 87%

Further lines, the compound ahead of its results:

Structure (SMILES)	PDE6D % Degradation at 15 μM (PDE6D)	PDE6D % Degradation at 30 μM (PDE6D)	IKAROS % Degradation at 15 μM (IKAROS)	IKAROS % Degradation at 30 μM (IKAROS)	CK1α % Degradation at 15 μM (CK1α)	CK1α % Degradation at 30 μM (CK1α)	MV-4-11 Cell Viability % DMSO at 15 μM (MV-4-11 cells)	MV-4-11 Cell Viability % DMSO at 30 μM (MV-4-11 cells)	also measured
Cc1nc2ccsc2c(=O)n1C1CCC(=O)NC1=O (stereo not drawn) [Compound 1, 3-(2-methyl-4-oxothieno[3,2-d]pyrimidin-3(4H)-yl)piperidine-2,6-dione]									GSPT1 % Degradation at 15 μM (GSPT1): 23%; GSPT1 % Degradation at 30 μM (GSPT1): 0%
Cc1nc2cscc2c(=O)n1C1CCC(=O)NC1=O (stereo not drawn) [Compound 2, 3-(2-methyl-4-oxothieno[3,4-d]pyrimidin-3(4H)-yl)piperidine-2,6-dione]	0%	24%	0%	7%					
Cc1nc2sccc2c(=O)n1C1CCC(=O)NC1=O (stereo not drawn) [Compound 3, 3-(2-methyl-4-oxothieno[2,3-d]pyrimidin-3(4H)-yl)piperidine-2,6-dione]	0%	10%					97 % DMSO	94 % DMSO	
Cc1nc2cc(Br)sc2c(=O)n1C1CCC(=O)NC1=O (stereo not drawn) [Compound 4, 3-(6-bromo-2-methyl-4-oxothieno[3,2-d]pyrimidin-3(4H)-yl)piperidine-2,6-dione]	49%	75%					100 % DMSO	97 % DMSO	
Cc1nc2scc(Br)c2c(=O)n1C1CCC(=O)NC1=O (stereo not drawn) [Compound 5, 3-(5-bromo-2-methyl-4-oxothieno[2,3-d]pyrimidin-3(4H)-yl)piperidine-2,6-dione]	0%	15%							
Cc1cc2c(=O)n(C3CCC(=O)NC3=O)c(C)nc2s1 (stereo not drawn) [Compound 6, 3-(2,6-dimethyl-4-oxothieno[2,3-d]pyrimidin-3(4H)-yl)piperidine-2,6-dione]							89 % DMSO	91 % DMSO	
Cc1sc2nc(C)n(C3CCC(=O)NC3=O)c(=O)c2c1N (stereo not drawn) [Compound 7, 3-(5-amino-2,6-dimethyl-4-oxothieno[2,3-d]pyrimidin-3(4H)-yl)piperidine-2,6-dione]							97 % DMSO	96 % DMSO	
